Laboratory results from patent publication US8287923B2, “Compositions and methods for treating immune disorders” (priority 2005, dated 2012).

System: normal human epidermal keratinocytes (NHEK)
Assay: Affymetrix gene array analysis, autoantigen gene expression
Format: cell-based
Conditions: 100 μM
Method: The gene array experiment was performed at the Core Facility of Genomics of the Medical College of Georgia, according to the instructions of the manufacturer (Affymetrix, Santa Clara, Calif.). Briefly, NHEK and OSC2 cells treated with 100 μM EGCG for different time period were extracted for total RNA, the RNA was processed for probes and hybridized with a cDNA microarray (HuG133A, Affymetrix) which represents 22,283 human series. DNA chips were read with a Hewlett-Packard GeneArray Scanner at a resolution of […] and were analyzed with the GeneSpring software (Silicon Genetics, Redwood City, Calif.). Details of this analysis will be published elsewhere (Hsu et al., manuscript in preparation).
Gene assays provide a valuable tool for studying the broad response of cells to agents, and we have used this approach to compare the differential effects of GTPP on gene expression in NHEK and human oral squamous carcinoma cells (Hsu, et al, manuscript in preparation). […] See also Hsu, S. et al. (2005) JPET 315:805-811, which is incorporated by reference in its entirety.

SMILES: O=C(O[C@@H]1Cc2c(O)cc(O)cc2O[C@@H]1c1cc(O)c(O)c(O)c1)c1cc(O)c(O)c(O)c1 [EGCG, (−)-epigallocatechin-3-gallate]
- 60 kDa, SS-A/Ro (212852_s_at) expression, normalized (6 h): 0.85
- Ku autoantigen, 80 kDa (208642_s_at) expression, normalized (6 h): 0.96
- Ku autoantigen, 80 kDa (208643_s_at) expression, normalized (6 h): 0.98
- Nuclear antigen SP100 (202863_at) expression, normalized (6 h): 0.59
- Nuclear antigen SP100 (202864_s_at) expression, normalized (6 h): 0.64
- Nuclear antigen SP10075 kDa (213226_at) expression, normalized (6 h): 0.43
- RNA polymerase 1 (202692_s-at) expression, normalized (6 h): 0.50
- SS-B/La (201138_s_at) expression, normalized (6 h): 0.57
- SS-B/La (201139_s_at) expression, normalized (6 h): 0.43
- centromere protein C1 (20473_at) expression, normalized (6 h): 0.87
- coilin (203653_s_at) expression, normalized (6 h): 0.60
- coilin (203654_s_at) expression, normalized (6 h): 0.62
- fodrin-α (208611_s_at) expression, normalized (6 h): 0.56
- fodrin-α (215235_s_at) expression, normalized (6 h): 0.75
- golgin-67 (208797_s_at) expression, normalized (6 h): 0.92
- golgin-67 (208798_x_at) expression, normalized (6 h): 0.32
- golgin-67 (210425_x_at) expression, normalized (6 h): 0.19
- golgin-67 (213650_at) expression, normalized (6 h): 0.69
- scleroderma autoantigen 1, 75 kDa (213226_at) expression, normalized (6 h): 0.43
- spectrin-β non-erythrocyctic 1 (212071_s_at) expression, normalized (6 h): 0.95
- thyroid autoantigen 70 kDa (Ku antigen) (200792_at) expression, normalized (6 h): 1.13
- ADPRT [poly(ADP)-ribose polymerase] expression (6 h, vs time zero): 0.992 fold
- ANAP12 expression (6 h, vs time zero): 0.4 fold
- ANXA11 expression (6 h, vs time zero): 2.141 fold
- CALR expression (6 h, vs time zero): 1.482 fold
- CBARA1 expression (6 h, vs time zero): 0.498 fold
- CENPA expression (6 h, vs time zero): 0.672 fold
- CENPB expression (6 h, vs time zero): 0.498 fold
- CENPC1 expression (6 h, vs time zero): 0.869 fold
- CHD4 expression (6 h, vs time zero): 0.916 fold
- COL17A1 expression (6 h, vs time zero): 1.043 fold
- CTDSP1 expression (6 h, vs time zero): 1.25 fold
- CTDSP2 expression (6 h, vs time zero): 0.92 fold
- CTDSPL expression (6 h, vs time zero): 2.42 fold
- DLAT expression (6 h, vs time zero): 1.031 fold
- EPPK1 expression (6 h, vs time zero): 1.318 fold
- FBL expression (6 h, vs time zero): 1.09 fold
- FLJ31657 expression (6 h, vs time zero): 0.435 fold
- FLNB (Filamin B, β) expression (6 h, vs time zero): 0.751 fold
- FLNB (Filamin B, γ) expression (6 h, vs time zero): 0.875 fold
- G22P1 (Thyroid autoantigen, 70 kDa, Ku antigen) expression (6 h, vs time zero): 1.127 fold
- GMEB2 expression (6 h, vs time zero): 0.626 fold
- GOLGA1 expression (6 h, vs time zero): 0.68 fold
- GOLGA2 expression (6 h, vs time zero): 0.769 fold
- GOLGA3 expression (6 h, vs time zero): 0.547 fold
- GOLGA4 expression (6 h, vs time zero): 0.353 fold
- GOLGA5 expression (6 h, vs time zero): 0.731 fold
- GOLGB1 expression (6 h, vs time zero): 0.56 fold
- HARS expression (6 h, vs time zero): 0.88 fold
- HARSL expression (6 h, vs time zero): 0.88 fold
- HSA6591 expression (6 h, vs time zero): 0.532 fold
- HUMAUANTIG expression (6 h, vs time zero): 0.444 fold
- IMP-2 expression (6 h, vs time zero): 0.635 fold
- LAD1 expression (6 h, vs time zero): 0.954 fold
- LMO4 expression (repeat 1) (6 h, vs time zero): 0.708 fold
- LMO4 expression (repeat 2) (6 h, vs time zero): 1.133 fold
- MGC5560 expression (repeat 1) (6 h, vs time zero): 1.646 fold
- MGC5560 expression (repeat 2) (6 h, vs time zero): 2.605 fold
- NS (Nucleostemin) expression (6 h, vs time zero): 0.519 fold
- PDHB expression (6 h, vs time zero): 0.745 fold
- PDX1 expression (6 h, vs time zero): 0.646 fold
- PMSCL1, 75 kDa expression (6 h, vs time zero): 0.431 fold
- PMSCL2 expression (6 h, vs time zero): 1.058 fold
- POLR1B expression (6 h, vs time zero): 0.98 fold
- POLR1D expression (6 h, vs time zero): 1.04 fold
- POLR2A expression (repeat 1) (6 h, vs time zero): 1.80 fold
- POLR2A expression (repeat 2) (6 h, vs time zero): 0.44 fold
- POLR2B expression (6 h, vs time zero): 0.59 fold
- POLR2C expression (6 h, vs time zero): 1.53 fold
- POLR2D expression (6 h, vs time zero): 1.04 fold
- POLR2E expression (6 h, vs time zero): 0.87 fold
- POLR2F expression (6 h, vs time zero): 1.17 fold
- POLR2G expression (6 h, vs time zero): 0.74 fold
- POLR2H expression (6 h, vs time zero): 1.02 fold
- POLR3C expression (6 h, vs time zero): 0.45 fold
- POLR3G expression (6 h, vs time zero): 1.05 fold
- PSME3 expression (6 h, vs time zero): 1.128 fold
- RALY expression (6 h, vs time zero): 1.496 fold
- SART1 expression (6 h, vs time zero): 1.462 fold
- SLC25A16 expression (6 h, vs time zero): 1.099 fold
- SNRP70 expression (6 h, vs time zero): 2.28 fold
- SNRPA expression (6 h, vs time zero): 1.35 fold
- SNRPB2 expression (6 h, vs time zero): 0.56 fold
- SNRPB expression (repeat 1) (6 h, vs time zero): 0.76 fold
- SNRPB expression (repeat 2) (6 h, vs time zero): 0.67 fold
- SNRPC expression (6 h, vs time zero): 1.28 fold
- SNRPD1 expression (repeat 1) (6 h, vs time zero): 0.658 fold
- SNRPD1 expression (repeat 2) (6 h, vs time zero): 0.612 fold
- SOX13 expression (6 h, vs time zero): 1.24 fold
- SP100 expression (repeat 1) (6 h, vs time zero): 0.59 fold
- SP100 expression (repeat 2) (6 h, vs time zero): 0.686 fold
- SP110 expression (repeat 1) (6 h, vs time zero): 1.205 fold
- SP110 expression (repeat 2) (6 h, vs time zero): 0.997 fold
- SP110 expression (repeat 3) (6 h, vs time zero): 0.7 fold
- SPTAN1 (α-fodrin) expression (repeat 1) (6 h, vs time zero): 0.56 fold
- SPTAN1 (α-fodrin) expression (repeat 2) (6 h, vs time zero): 0.75 fold
- SPTBN expression (6 h, vs time zero): 0.95 fold
- SSA2 (autoantigen SS-A/Ro) expression (repeat 2) (6 h, vs time zero): 0.687 fold
- SSA2 expression (repeat 1) (6 h, vs time zero): 0.739 fold
- SSA2 expression (repeat 3) (6 h, vs time zero): 0.571 fold
- SSA2 expression (repeat 4) (6 h, vs time zero): 0.85 fold
- SSB (autoantigen La) expression (repeat 1) (6 h, vs time zero): 0.57 fold
- SSB (autoantigen La) expression (repeat 2) (6 h, vs time zero): 0.427 fold
- SSNA1 expression (6 h, vs time zero): 1.608 fold
- SSSCA1 expression (6 h, vs time zero): 1.005 fold
- STRN3 expression (6 h, vs time zero): 0.528 fold
- TOP1 expression (repeat 1) (6 h, vs time zero): 0.84 fold
- TOP1 expression (repeat 2) (6 h, vs time zero): 0.33 fold
- UBTF expression (6 h, vs time zero): 0.501 fold
- XRCC5 (Ku autoantigen, 80 kDa) expression (repeat 1) (6 h, vs time zero): 0.977 fold
- XRCC5 (Ku autoantigen, 80 kDa) expression (repeat 2) (6 h, vs time zero): 0.958 fold
- dJ963E22.1 expression (6 h, vs time zero): 0.723 fold
- α-NAC expression (6 h, vs time zero): 0.0443 fold
- 60 kDa, SS-A/Ro (210438_x_at) expression, normalized (24 h): 0.88
- 60 kDa, SS-A/Ro (212852_s_at) expression, normalized (24 h): 0.94
